US11718604B2, “4-amino-6-(1,3-benzodioxole)picolinates and their use as herbicides” (Dow AgroSciences LLC, priority 2018, dated 2023)

Key:
Format in all cases: in vivo
[1] = system: VIOTR: wild violet (Viola tricolor); assay: Post-emergent herbicidal test, wild violet; conditions: post-emergence, 336 h, 14 days after application, read-out: Visual Growth Reduction (%) 14 Days After Application VIOTR
Experimental: (§1) Post-Emergent Test: Seeds or nutlets of the desired test plant species were planted in Sun Gro Metro-Mix® 360 planting mixture, which typically has a pH of 6.0 to 6.8 and an organic matter content of about 30 percent, in plastic pots with a surface area of 64 square centimeters (cm^2). When required to ensure good germination and healthy plants, a fungicide treatment and/or other chemical or physical treatment was applied. The plants were grown for 7-21 d in a greenhouse with an approximate 15 h photoperiod which was maintained at about 23-29° C. during the day and 22-28° C. during the night. Nutrients and water were added on a regular basis and supplemental lighting was provided with overhead metal halide 1000-Watt lamps as necessary. The plants were employed for testing when they reached the first or second true leaf stage.
(§2) A weighed amount, determined by the highest rate to be tested, of each test compound was placed in a 25 mL glass vial and was dissolved in 4 mL of a 97:3 v/v mixture of acetone and DMSO to obtain concentrated stock solutions. […] The concentrated stock solutions obtained were diluted with 20 mL of an aqueous mixture containing acetone, water, isopropyl alcohol, DMSO, Atplus 411F crop oil concentrate, and Triton® X-155 surfactant in a 48.5:39:10:1.5:1.0:0.02 v/v ratio to obtain spray solutions containing the highest application rates. Additional application rates were obtained by serial dilution of 12 mL of the high rate solution into a solution containing 2 mL of a 97:3 v/v mixture of acetone and DMSO and 10 mL of an aqueous mixture containing acetone, water, isopropyl alcohol, DMSO, Atplus 411F crop oil concentrate, and Triton X-155 surfactant in a 48.5:39:10:1.5:1.0:0.02 v/v ratio to obtain ½×, ¼×, ⅛× and 1/16× rates of the high rate. Compound requirements are based upon a 12 mL application volume at a rate of 187 liters per hectare (L/ha). Formulated compounds were applied to the plant material with an overhead Mandel track sprayer equipped with 8002E nozzles calibrated to deliver 187 L/ha over an application area of 0.503 square meters at a spray height of 18 inches (43 cm) above the average plant canopy height. Control plants were sprayed in the same manner with the solvent blank.
(§3) The treated plants and control plants were placed in a greenhouse as described above and watered by subirrigation to prevent wash-off of the test compounds. After 14 d, the condition of the test plants as compared with that of the untreated plants was determined visually and scored on a scale of 0 to 100 percent where 0 corresponds to no injury and 100 corresponds to complete kill.

[2] = system: ECHCG: barnyardgrass (Echinochloa crus-galli); assay: Post-emergent herbicidal test, barnyardgrass; conditions: post-emergence, 336 h, 14 days after application, read-out: Visual Growth Reduction (%) 14 Days After Application ECHCG
Experimental: as §1, §2, §3

[3] = system: BRSNN: oilseed rape, canola (Brassica napus); assay: Post-emergent herbicidal test, oilseed rape; conditions: post-emergence, 336 h, 14 days after application, read-out: Visual Growth Reduction (%) 14 Days After Application BRSNN
Experimental: as §1, §2, §3

[4] = system: ABUTH: velvetleaf (Abutilon theophrasti); assay: Post-emergent herbicidal test, velvetleaf; conditions: post-emergence, 336 h, 14 days after application, read-out: Visual Growth Reduction (%) 14 Days After Application ABUTH
Experimental: as §1, §2, §3

[5] = system: CIRAR: Canada thistle (Cirsium arvense); assay: Post-emergent herbicidal test, Canada thistle; conditions: post-emergence, 336 h, 14 days after application, read-out: Visual Growth Reduction (%) 14 Days After Application CIRAR
Experimental: as §1, §2, §3

[6] = system: IPOHE: ivyleaf morningglory (Ipomoea hederacea); assay: Post-emergent herbicidal test, ivyleaf morningglory; conditions: post-emergence, 336 h, 14 days after application, read-out: Visual Growth Reduction (%) 14 Days After Application IPOHE
Experimental: as §1, §2, §3

[7] = system: EPHHL: wild poinsettia (Euphorbia heterophylla); assay: Post-emergent herbicidal test, wild poinsettia; conditions: post-emergence, 336 h, 14 days after application, read-out: Visual Growth Reduction (%) 14 Days After Application EPHHL
Experimental: as §1, §2, §3

[8] = system: CYPES: yellow nutsedge (Cyperus esculentus); assay: Post-emergent herbicidal test, yellow nutsedge; conditions: post-emergence, 336 h, 14 days after application, read-out: Visual Growth Reduction (%) 14 Days After Application CYPES
Experimental: as §1, §2, §3

[9] = system: SETFA: giant foxtail (Setaria faberi); assay: Post-emergent herbicidal test, giant foxtail; conditions: post-emergence, 336 h, 14 days after application, read-out: Visual Growth Reduction (%) 14 Days After Application SETFA
Experimental: as §1, §2, §3

[10] = system: SORVU: shattercane (Sorghum bicolor); assay: Post-emergent herbicidal test, shattercane; conditions: post-emergence, 336 h, 14 days after application, read-out: Visual Growth Reduction (%) 14 Days After Application SORVU
Experimental: as §1, §2, §3

[11] = system: DIGSA: large crabgrass (Digitaria sanguinalis); assay: Post-emergent herbicidal test, large crabgrass; conditions: post-emergence, 336 h, 14 days after application, read-out: Visual Growth Reduction (%) 14 Days After Application DIGSA
Experimental: as §1, §2, §3

Nc1c(F)c(-c2ccc(F)c3c2OC(F)(F)O3)nc(C(=O)O)c1Cl [Compound 8]
pest or weed control at 17.5 g/ha ([1]; 17.5 g ai/ha): 0% | pest or weed control at 35 g/ha ([1]; 35 g ai/ha): 5% | pest or weed control at 70 g/ha ([1]; 70 g ai/ha): 15% | pest or weed control at 140 g/ha ([1]; 140 g ai/ha): 35% | pest or weed control at 17.5 g/ha ([2]; 17.5 g ai/ha): 0% | pest or weed control at 35 g/ha ([2]; 35 g ai/ha): 0% | pest or weed control at 70 g/ha ([2]; 70 g ai/ha): 0% | pest or weed control at 140 g/ha ([2]; 140 g ai/ha): 0% | pest or weed control at 17.5 g/ha ([3]; 17.5 g ai/ha): 70% | pest or weed control at 35 g/ha ([3]; 35 g ai/ha): 75% | pest or weed control at 70 g/ha ([3]; 70 g ai/ha): 85% | pest or weed control at 140 g/ha ([3]; 140 g ai/ha): 97% | pest or weed control at 17.5 g/ha ([4]; 17.5 g ai/ha): 30% | pest or weed control at 35 g/ha ([4]; 35 g ai/ha): 40% | pest or weed control at 70 g/ha ([4]; 70 g ai/ha): 60% | pest or weed control at 140 g/ha ([4]; 140 g ai/ha): 75% | pest or weed control at 17.5 g/ha ([5]; 17.5 g ai/ha): 20% | pest or weed control at 35 g/ha ([5]; 35 g ai/ha): 75% | pest or weed control at 70 g/ha ([5]; 70 g ai/ha): 80% | pest or weed control at 140 g/ha ([5]; 140 g ai/ha): 80% | pest or weed control at 17.5 g/ha ([6]; 17.5 g ai/ha): 0% | pest or weed control at 35 g/ha ([6]; 35 g ai/ha): 0% | pest or weed control at 70 g/ha ([6]; 70 g ai/ha): 10% | pest or weed control at 140 g/ha ([6]; 140 g ai/ha): 10% | pest or weed control at 17.5 g/ha ([7]; 17.5 g ai/ha): 0% | pest or weed control at 35 g/ha ([7]; 35 g ai/ha): 0% | pest or weed control at 70 g/ha ([7]; 70 g ai/ha): 0% | pest or weed control at 140 g/ha ([7]; 140 g ai/ha): 0% | pest or weed control at 17.5 g/ha ([8]; 17.5 g ai/ha): 0% | pest or weed control at 35 g/ha ([8]; 35 g ai/ha): 0% | pest or weed control at 70 g/ha ([8]; 70 g ai/ha): 0% | pest or weed control at 140 g/ha ([8]; 140 g ai/ha): 10% | pest or weed control at 17.5 g/ha ([9]; 17.5 g ai/ha): 0% | pest or weed control at 35 g/ha ([9]; 35 g ai/ha): 0% | pest or weed control at 70 g/ha ([9]; 70 g ai/ha): 0% | pest or weed control at 140 g/ha ([9]; 140 g ai/ha): 0% | pest or weed control at 17.5 g/ha ([10]; 17.5 g ai/ha): 0% | pest or weed control at 35 g/ha ([10]; 35 g ai/ha): 0% | pest or weed control at 70 g/ha ([10]; 70 g ai/ha): 0% | pest or weed control at 140 g/ha ([10]; 140 g ai/ha): 0% | pest or weed control at 17.5 g/ha ([11]; 17.5 g ai/ha): 0% | pest or weed control at 35 g/ha ([11]; 35 g ai/ha): 0% | pest or weed control at 70 g/ha ([11]; 70 g ai/ha): 0% | pest or weed control at 140 g/ha ([11]; 140 g ai/ha): 0%
